Measurements taken from US10913727B2, “Modulators of the integrated stress pathway” (Calico Life Sciences LLC, priority 2016, dated 2021).

Test system: HEK293T cells carrying the ATF4 luciferase reporter
Test: ATF4-Luc assay, in vitro model of Vanishing Cell White Matter Disease (VWMD)
Assay type: cell-based
Conditions: Homo sapiens, HEK-293T, 1 μg/mL tunicamycin, 7 hours, One Glo luminescence
Summary of the method: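 Reporter cells were stably generated by retroviral transduction and puromycin selection, then seeded at 30,000 cells/well. Next day, cells received 1 μg/mL tunicamycin with 200 nM test compound for 7 h, and luciferase luminescence was read with a one-step reagent. Values reported as EC50.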

Molecule `O=C(COc1ccc(Cl)c(F)c1)NC12CCC(NC(=O)c3cccc(C(F)(F)F)n3)(CC1)CC2O` (stereo not drawn) [Compound 941, N-{4-[2-(4-chloro-3-fluorophenoxy)acetamido]-3-hydroxybicyclo[2.2.2]octan-1-yl}-6-(trifluoromethyl)pyridine-2-carboxamide] has an EC50 of under 0.05 µM.
Molecule `O=C(COc1ccc(Cl)c(F)c1)NC12CCC(NC(=O)c3ccc(OCC(F)(F)F)nc3)(CC1)CC2O` (stereo not drawn) [Compound 579, N-{4-[2-(4-chloro-3-fluorophenoxy)acetamido]-3-hydroxybicyclo[2.2.2]octan-1-yl}-6-(2,2,2-trifluoroethoxy)pyridine-3-carboxamide] has an EC50 of 0.05 to 0.25 µM.
For `O=C(CCCc1cccc(Cl)c1)NC12CC(NC(=O)c3cnc(C(F)F)cn3)(C1)C2` [Compound 946, N-{3-[4-(3-chlorophenyl)butanamido]bicyclo[1.1.1]pentan-1-yl}-5-(difluoromethyl)pyrazine-2-carboxamide], the EC50 was over 2 µM.
`Cc1cc(C(=O)NC23CC(NC(=O)COc4ccc(Cl)c(Cl)c4)(C2)C3)cnc1C` [Compound 693, N-{3-[2-(3,4-dichlorophenoxy)acetamido]bicyclo[1.1.1]pentan-1-yl}-5,6-dimethylpyridine-3-carboxamide] was tested, and the EC50 was 0.25 to 1 µM.
For `Cc1cnc(C(=O)NC23CCC(NC(=O)COc4ccc(Cl)c(Cl)c4)(C2)C3)cn1` [Compound 142, N-{4-[2-(3,4-dichlorophenoxy)acetamido]bicyclo[2.1.1]hexan-1-yl}-5-methylpyrazine-2-carboxamide], the EC50 was 0.25 to 1 µM.
`O=C(COc1ccc(Cl)c(F)c1)NC12CC(NC(=O)c3cc(-n4cncn4)ccn3)(C1)C2` [Compound 481, N-{3-[2-(4-chloro-3-fluorophenoxy)acetamido]bicyclo[1.1.1]pentan-1-yl}-4-(1H-1,2,4-triazol-1-yl)pyridine-2-carboxamide] showed an EC50 of 1 to 2 µM.
`O=C(COc1ccc(Cl)c(Cl)c1)NC12CC(NC(=O)c3csc(C(F)(F)F)n3)(C1)C2` [Compound 676, N-{3-[2-(3,4-dichlorophenoxy)acetamido]bicyclo[1.1.1]pentan-1-yl}-2-(trifluoromethyl)-1,3-thiazole-4-carboxamide] was tested, and the EC50 was under 0.05 µM.
Molecule `N#Cc1cccc(C(=O)NC23CC(NC(=O)COc4ccc(Cl)c(F)c4)(C2)C3)c1` [Compound 366, N-{3-[2-(4-chloro-3-fluorophenoxy)acetamido]bicyclo[1.1.1]pentan-1-yl}-3-cyanobenzamide] has an EC50 of 0.05 to 0.25 µM.
Work on `O=C(COc1ccc(Cl)c(F)c1)NC12CC(NC(=O)c3nc4ccccc4s3)(C1)C2` [Compound 907, N-{3-[2-(4-chloro-3-fluorophenoxy)acetamido]bicyclo[1.1.1]pentan-1-yl}-1,3-benzothiazole-2-carboxamide] yielded an EC50 of 0.05 to 0.25 µM.
Molecule `O=C(COc1ccc(Cl)c(F)c1)NC12CCC(NC(=O)c3ccccn3)(C1)C2` [Compound 356, N-{4-[2-(4-chloro-3-fluorophenoxy)acetamido]bicyclo[2.1.1]hexan-1-yl}pyridine-2-carboxamide] has an EC50 of over 2 µM.
`CCc1nc(C(=O)NC23CC(NC(=O)COc4ccc(Cl)c(F)c4)(C2)C3)cs1` [Compound 554, N-{3-[2-(4-chloro-3-fluorophenoxy)acetamido]bicyclo[1.1.1]pentan-1-yl}-2-ethyl-1,3-thiazole-4-carboxamide] showed an EC50 of under 0.05 µM.
Work on `O=C(COc1ccc(Cl)c(F)c1)NC12CCC(NC(=O)c3cnccn3)(CC1)[C@@H](O)C2` [Compound 732, N-{(2S)-4-[2-(4-chloro-3-fluorophenoxy)acetamido]-2-hydroxybicyclo[2.2.2]octan-1-yl}pyrazine-2-carboxamide] yielded an EC50 of 0.25 to 1 µM.
Molecule `N#Cc1ccc(C(=O)NC23CCC(NC(=O)COc4ccc(Cl)c(F)c4)(CC2)C(O)C3)nc1` (stereo not drawn) [Compound 937, N-{4-[2-(4-chloro-3-fluorophenoxy)acetamido]-3-hydroxybicyclo[2.2.2]octan-1-yl}-5-cyanopyridine-2-carboxamide] has an EC50 of under 0.05 µM.
`O=C(COc1ccc(Cl)c(F)c1)NC12CCC(NC(=O)c3cnon3)(CC1)CC2O` (stereo not drawn) [Compound 634, N-{4-[2-(4-chloro-3-fluorophenoxy)acetamido]-3-hydroxybicyclo[2.2.2]octan-1-yl}-1,2,5-oxadiazole-3-carboxamide] was tested, and the EC50 was over 2 µM.
`O=C(COc1ccc(Cl)c(F)c1)NC12CC(Nc3ccnc4cc(Cl)ccc34)(C1)C2` [Compound 384, 2-(4-chloro-3-fluorophenoxy)-N-{3-[(7-chloroquinolin-4-yl)amino]bicyclo[1.1.1]pentan-1-yl}acetamide] gave an EC50 of under 0.05 µM.
`O=C(COc1ccc(Cl)c(F)c1)NC12CC(NC(=O)c3ccc(F)cn3)(C1)C2` [Compound 262, N-{3-[2-(4-chloro-3-fluorophenoxy)acetamido]bicyclo[1.1.1]pentan-1-yl}-5-fluoropyridine-2-carboxamide] gave an EC50 of 0.05 to 0.25 µM.
Molecule `O=C(COc1ccc(Cl)c(F)c1)NC12CCC(NC(=O)c3cccc(CO)n3)(CC1)CC2O` (stereo not drawn) [Compound 945, N-{4-[2-(4-chloro-3-fluorophenoxy)acetamido]-3-hydroxybicyclo[2.2.2]octan-1-yl}-6-(hydroxymethyl)pyridine-2-carboxamide] has an EC50 of over 2 µM.
Work on `Cc1cc2c(C(=O)NC34CC(NC(=O)COc5ccc(Cl)c(Cl)c5)(C3)C4)nccn2n1` [Compound 562, N-{3-[2-(3,4-dichlorophenoxy)acetamido]bicyclo[1.1.1]pentan-1-yl}-2-methylpyrazolo[1,5-a]pyrazine-4-carboxamide] yielded an EC50 of 0.25 to 1 µM.
`Cc1ccc(C(=O)NC23CCC(NC(=O)COc4ccc(Cl)c(F)c4)(CC2)C(O)C3)s1` (stereo not drawn) [Compound 621, N-{4-[2-(4-chloro-3-fluorophenoxy)acetamido]-3-hydroxybicyclo[2.2.2]octan-1-yl}-5-methylthiophene-2-carboxamide] gave an EC50 of 0.05 to 0.25 µM.
With `O=C(COc1ccc(Cl)c(F)c1)NC12CCC(NC(=O)c3ccc(OC(F)F)nc3)(C1)C2` [Compound 574, N-{4-[2-(4-chloro-3-fluorophenoxy)acetamido]bicyclo[2.1.1]hexan-1-yl}-6-(difluoromethoxy)pyridine-3-carboxamide] the EC50 was 0.05 to 0.25 µM.
Work on `O=C(COc1ccc(Cl)c(F)c1)NC12CCC(NC(=O)c3cc(C4CC4)no3)(CC1)CC2O` (stereo not drawn) [Compound 327, N-{4-[2-(4-chloro-3-fluorophenoxy)acetamido]-3-hydroxybicyclo[2.2.2]octan-1-yl}-3-cyclopropyl-1,2-oxazole-5-carboxamide] yielded an EC50 of 0.05 to 0.25 µM.
Molecule `Cc1cncc(NC23CC(NC(=O)COc4ccc(Cl)c(F)c4)(C2)C3)n1` [Compound 688, 2-(4-chloro-3-fluorophenoxy)-N-{3-[(6-methylpyrazin-2-yl)amino]bicyclo[1.1.1]pentan-1-yl}acetamide] has an EC50 of over 2 µM.
`O=C(COc1ccc(Cl)c(F)c1)NC12CC(NC(=O)c3cnc4ccnn4c3)(C1)C2` [Compound 690, N-{3-[2-(4-chloro-3-fluorophenoxy)acetamido]bicyclo[1.1.1]pentan-1-yl}pyrazolo[1,5-a]pyrimidine-6-carboxamide] gave an EC50 of 0.25 to 1 µM.
`O=C(COc1ccc(Cl)c(F)c1)NC12CC(NC(=O)c3cc4ncccn4n3)(C1)C2` [Compound 122, N-{3-[2-(4-chloro-3-fluorophenoxy)acetamido]bicyclo[1.1.1]pentan-1-yl}pyrazolo[1,5-a]pyrimidine-2-carboxamide] was tested, and the EC50 was 1 to 2 µM.
